How the values were obtained:
[1] = tested on: OT-1 cells; assay: OT-I-Tcf7GFP splenocyte screen: proliferation and Tim3−TCF-1+ ratio; format: cell-based, mouse; conditions: Day7, 60 mM
Procedure: Cell number was recorded on day 3 and day 7. On day 7, cells were stained with anti-CD8a (PerCP-Cy5.5) and anti-Tim3 (BV421) antibodies for flow cytometry or plate reader analysis.
Because TCF1 expression positively correlates with T cell stemness, the greater signal of EGFP a T cell expresses, the less differentiated the T cell is. Furthermore, if the compound also facilitates T cells proliferation, there would be more T cells per well in comparison to the untreated control. Therefore, a compound that not only maintains TCF-1 expression but also facilitates T cell growth would produce the strongest green fluorescence intensity. […] GlcA stands for glucuronic acid.

[2] = tested on: P14 cells; assay: P14 splenocyte in vitro activation, re-stimulation and expansion; format: cell-based, mouse; conditions: 60 mM; for Fold of proliferation, Normalized to W/O: P14 cells
[3] = tested on: B16-OVA tumor; format: in vivo, mouse; conditions: treated T cells transferred to B16-OVA mice
Procedure: (§1) Naïve splenocytes from OT-1 mice were stimulated in vitro with OVA257-264 (500 nM) and IL-2 (60 IU/mL) in the presence or absence of an added compound for 3 days at a density of 1 million/mL (100 uL/well in 96/well plate), then expanded for 4 days. On day 7, PD-1, Tim3 and TCF-1 expressions were assessed by flow cytometry by staining cells with anti-CD8a (PerCP-Cy5.5), anti-Tim3 (BV421) and anti-TCF-1 (AF488) antibodies. For adoptive transfer, 0.6M B16-OVA cells (6×10^5) were inoculated subcutaneously 3 to 5 days before transfer in C57BL/6. On the day of adoptive transfer, mice were irradiated with 5 Gy X-ray, randomized according to tumor size, and intravenously injected with 0.2-0.3M of CD8+OT-1 T cells (2×10^5) expanded under different conditions, followed by administration of 50000 IU IL-2 every 12 h for four days. In the control group, mice were injected with cell-free vehicle only. For assessment of adoptive transfer of OT-1 CD8+ T cells activated and expanded by contacting the cells with fructose, on day 9 after transfer, anti-PD-1 (100 ug/mouse) was administered to the mice that had received T cell transfer. For assessment of adoptive transfer of OT-1 CD8+ T cells activated and expanded by contacting cells with Neu5Ac, on day 14 and day 21 after transfer, anti-PD-1 (100 ug/mouse) was administered to the mice that had received T cell transfer. The tumor growth was monitored every 3 to 4 days by measuring tumor size. Percent survival was also monitored and recorded within a period of 40 days post treatment. To evaluate tumor infiltrating OT-1 T cells, 0.6M B16-OVA cells (6×10^5) were inoculated subcutaneously 3 to 5 days before transfer in C57BL/6. On the day of adoptive transfer, mice were irradiated with 5 Gy X-ray, randomized according to tumor size, and intravenously injected with 0.2-0.3M of CD8+OT-1 T cells (2×10^5) expanded under different conditions, followed by administration of 50000 IU IL-2 every 12 h for four days. Tumors were then isolated and assessed for percentage of OT-I T cells from the total CD8+ T cells and OT-1 T cell number per gram of tumor tissue. To evaluate apoptosis, Naïve OT-1 splenocytes were stimulated by OVA257-264 (500 nM) without IL-2 in the presence of absence of sugars for 5 days followed by using Annexin V Apoptosis detection kit (Biolegend). […] To evaluate other cellular characteristics, naïve OT-1 splenocytes were stimulated by OVA257-264 (500 nM) with IL-2 (60 IU/mL) in the presence or absence of sugars for 7 or 8 days. On day 7 or 8 cells were taken and analyzed by assessment of ROS, NADPH/NADP+ ratio, and GSH/GSSG ratio.

[4] = tested on: OT-1 splenocytes; assay: Apoptosis (Annexin V) and IL-2 production of OT-1 splenocytes stimulated without IL-2; format: cell-based, mouse; conditions: OVA257-264 500 nM without IL-2, 5 days
Procedure: as §1

[5] = tested on: OT-1 splenocytes; assay: ROS, NADPH/NADP+ ratio and GSH/GSSG ratio of OT-1 splenocytes; format: cell-based, mouse; conditions: day 7 or 8, with IL-2; vs T cells not treated with sugar
Procedure: as §1

[6] = tested on: MC38 TSA-reactive CD8+ TILs; assay: Rapid expansion of TSA-reactive CD8+ TILs from MC38 tumors; format: cell-based, mouse
Procedure: Sugars were added at the beginning or during the expansion of the TILs, and kept till the end of expansion. On expansion day 9, phenotypes of the expanded T cells were assessed, and the cells were used for adoptive transfer (FIG. 6E). For adoptive transfer, 0.5 million cells (B16-OVA or MC38) were inoculated subcutaneously on each mouse on day 0, Listeria monocytogenes-OVA (LM-OVA) infection 0.5 million CFU/mice on day 1, and blood analysis was recorded on day 7.

[7] = tested on: TILs from B16-OVA tumor; format: cell-based, mouse; conditions: day 7 rapid expansion; vs without sugars
Procedure: TILs from B16-OVA tumor were isolated on day10 after inoculation, and Tim-3^−TCF/GFP^+ and Tim-3^+TCF/GFP^− in tetramer positive population were collected by live cell sorting (FIG. 15A). Phenotype features of Tim-3^−TCF/GFP^+ (FIG. 15B) and Tim-3^+TCF/GFP^− (FIG. 15C) were analyzed on day 7 after rapid expansion with feeder cells (TILs/feeder cell: 1/200) in the presence or absence of sugars.
To investigate which population that sugars mainly changed on T cells, B16-OVA cancer cells (7×10^5 cells) were subcutaneously inoculated into the left or right flank of TCF7^GFP mice expressing an EGFP fluorescent reporter from the endogenous Tcf7 locus, which enable us to track the expression of TCF-1 in live cells.

[8] = tested on: OT-I splenocytes; assay: OT-I splenocyte culture with KRAS (G12C) inhibitors 9/12 and analogues; format: cell-based, mouse; conditions: added D0 at 5 uM or D3 at 5 uM or 10 uM, kept till day 7
Procedure: We performed additional studies to examine the observed activities of KRAS (G12C) inhibitors in modulating T cell properties. First, OT-I splenocytes were activated with OVA257-264 peptide (500 nM) for 3 days in the presence of 60 IU/mL IL-2 and cultured for another 7 days. Inhibitor 9 (i9) or inhibitor 12 (i12) was added on Day0 (D0) upon activation at 5 uM and the concentration was kept till day 7 or added on Day3 (D3) after activation at 5 uM or 10 uM and the concentration was kept till day 7 for analysis.
Other than inhibitors 9 and 12, we also tested activities of two analogues of these KRAS (G12C) inhibitors. The analogues, Z7 and Z6, are derived from Inhibitor 9 and Inhibitor 12, respectively. They have an alkynyl group for click reaction which is used for ABPP analysis to find the targets of the inhibitors (FIG. 18A). In the studies, OT-I splenocytes were activated with OVA257-264 peptide (500 nM) for 3 days in the presence of 60 IU/mL IL-2 and cultured for another 7 days. 5 uM […], i9, z6 or z7 were added on Day0 (DO) upon activation.
As noted above, Inhibitor 9 and Inhibitor 12 have a cysteine-reactive group ([…] and acrylamide) that allows covalent binding of i9 and i12 to a cysteine residue in proteins. We further tested two analogue compounds, ZT-1 and ZT-2, that are not capable of forming the covalent binding. […] Cell number was recorded on day 5 and day 7. […]

[9] = tested on: anti-GD2 CAR-T cells; assay: Anti-GD2 CAR-T cell expansion with Inhibitor 9/12, phenotype and cell number
[10] = Inhibitor 9 at 2 or 3 uM, Inhibitor 12 at 1 or 2 uM, day 15

Compound	Tim3^−TCF-1^+ ratio of CD8^+ T cells (%) ([1]; w/o 2.6)	activity at 60000 µM ([1]; Mus musculus, Splenocyte, 168 h, OT-1 cells, read-out: Proliferation fold, Normalized to W/O) [%]	Fold of proliferation, Normalized to W/O ([2]; Day6) [fold]	Tim3^−TCF-1^+ ratio of CD8^+ T cells (%) ([2]; Day6, w/o 55.0)	Fold of proliferation, Normalized to W/O ([2]; Day9) [fold]	Tim3^−TCF-1^+ ratio of CD8^+ T cells (%) ([2]; Day9, w/o 3.5)	tumor infiltrating OT-1 T cell numbers [3]	viability and apoptotic characteristics ([4]; vs T cells not treated with sugar)	production of IL-2 ([4]; vs no sugar)	GSH/GSSG ratio [5]	NADPH/NADP+ ratio [5]	ROS [5]	cell surface anti-CLA (Cutaneous Lymphocyte-associated Antigen) staining [6]	maintenance of progenitor exhausted features of sorted Tim-3-TCF-GFP^+ TILs [7]	expression of inhibitory receptors (Tim-3+PD-1) [8]	proliferation of CAR-T cells ([9]; 2 or 3 uM)	expression of inhibitory receptors (PD-1, LAG3, Tim-3 and CD39) of anti-GD2 CAR-T cells [9, 10]	progenitor features of anti-GD2 CAR-T cells [9, 10]
CC(=O)N[C@H]1C(O)O[C@H](CO)[C@@H](O)[C@@H]1O (stereo partly drawn) [GlcNAc, N-Acetylglucosamine]	28.8	145	2.47	89.2	1.44	21.2	increased	enhanced viability and differential apoptotic characteristics	significantly greater	greater	greater	significantly less	significant increase	maintain more Tim-3^−TCF/GFP^+ cells	–	–	–	–
K-Ras(G12C) Inhibitor 9	–	–	–	–	–	–	–	–	–	–	–	–	–	–	decreased	facilitated the proliferation	decreased the expression of inhibitory receptors	increased progenitor features

— US20250027930A1, “SMALL MOLECULES FOR REPROGRAMING ANTI-TUMOR IMMUNITY OF T CELLS” (THE SCRIPPS RESEARCH INSTITUTE, priority 2021, published 2025)
